Source: the NIST ThermoML archive (doi:10.1021/acs.jced.6b00261)

Details: Liquid, Frequency=8 MHz, Pulse-echo method

C[Si]1(C)O[Si](C)(C)O[Si](C)(C)O[Si](C)(C)O1 [octamethylcyclotetrasiloxane]
Details | speed of sound [m/s]
299.67 K, 14920 kPa | 1006.8
299.79 K, 130 kPa | 911.09
299.8 K, 520 kPa | 913.77
299.81 K, 980 kPa | 916.96
299.81 K, 1500 kPa | 920.51
299.82 K, 1980 kPa | 923.9
299.83 K, 3440 kPa | 933.79
299.85 K, 6010 kPa | 950.89
300.15 K, 10240 kPa | 978.63
349.96 K, 26230 kPa | 939.02
349.98 K, 14970 kPa | 866.97
350 K, 10200 kPa | 832.31
350.03 K, 6210 kPa | 800.86
350.04 K, 1960 kPa | 764.8
350.04 K, 3530 kPa | 778.49
350.05 K, 960 kPa | 755.62
350.05 K, 1480 kPa | 760.43
350.06 K, 530 kPa | 751.64
350.07 K, 120 kPa | 747.75
350.35 K, 22660 kPa | 915.86
399.62 K, 19680 kPa | 784.97
399.63 K, 15100 kPa | 749.46
399.64 K, 6070 kPa | 667.98
399.64 K, 10120 kPa | 706.83
399.68 K, 3610 kPa | 641.86
399.69 K, 19290 kPa | 782.02
399.7 K, 510 kPa | 605.91
399.7 K, 1030 kPa | 612.25
399.7 K, 1460 kPa | 617.43
399.7 K, 2040 kPa | 624.18
399.71 K, 120 kPa | 600.99
449.63 K, 960 kPa | 475.36
449.64 K, 130 kPa | 461.18
449.64 K, 500 kPa | 467.67
449.69 K, 1960 kPa | 491.86
449.7 K, 1490 kPa | 484.22
449.77 K, 3600 kPa | 516.36
449.87 K, 5900 kPa | 547.45
450 K, 10040 kPa | 596.17
450.19 K, 15080 kPa | 646.97
450.23 K, 16420 kPa | 659.13
499.88 K, 3480 kPa | 398.42
499.88 K, 6030 kPa | 444.06
499.91 K, 2030 kPa | 367.4
499.92 K, 330 kPa | 321.35
499.92 K, 1490 kPa | 354.75
499.93 K, 11150 kPa | 515.95
499.94 K, 520 kPa | 329.04
500 K, 10650 kPa | 509.56
549.54 K, 5510 kPa | 338.9
549.55 K, 5070 kPa | 329.01
549.56 K, 4550 kPa | 317.1
549.61 K, 3880 kPa | 300.55
549.97 K, 6640 kPa | 364.29
